Test results taken from patent US20130165475A1, “DEUTERIUM-ENRICHED HETEROCYCLIC COMPOUNDS AS KINASE INHIBITORS” (ASCEPION PHARMACEUTICALS, INC., priority 2010, published 2013).
Counter-ions that a name gives are not always drawn.

Legend:
[1] = tested on: Mouse liver microsome; assay: Liver microsomal stability assay, mouse; format: in vitro ADME; parameters: key: A: the percentage of a compound remains is greater than that of its deuterium non-enriched counterpart; B: a result otherwise; details: 40 μM, 37° C., 30 min, 1 mg/ml microsome proteins; class relative to deuterium non-enriched counterpart
Experimental: A standard liver microsomal stability assay can be used to test or screen the compounds of this invention and to identify compounds with enhanced metabolic stability due to the enrichment of deuterium in the compounds. Liver microsome proteins prepared from different species such as mouse and rat were obtained from a commercial source (Research Institute for Liver Diseases, Shanghai, China). The assay was conducted in 1.5% potassium hydrogenphosphate (K2HPO4) in the presence of liver microsome proteins at 1 mg/ml and supplemented with an […] (3.3 mM NADPH, 3.3 mM glucose-6-phosphate, 6 units/ml G6PDase, and 3.3 mM magnesium chloride). Test compound was added into the assay mixture to a final concentration of 40 μM and incubated at 37° C. for 0 or 30 minutes. The reaction was stopped by the addition of 20 μM Bifonazole/CAN. Samples were then centrifuged at 14000 rpm for 10 minutes to precipitate proteins. Supernatant were then transferred to microcentrifuge tubes and subject to reverse phase HPLC analysis to determine the concentration of test compound.
The percentage of compounds that remained in the assay reactions after a thirty-minute incubation at 37° C. is calculated as the ratio between the amount of compound remained after a thirty-minute and that after a zero-minute incubation.

[2] = target: T1, c-Met (Homo sapiens, UniProt P08581); assay: c-Met cell-based assay (ELISA, phosphor-/total c-Met in transfected CHO cells, HGF stimulated); details: compound at 100 nM; CHO cells transfected with full length c-Met; HGF 100 ng/mL
T1 construct: expressed in transfected cells; host or cells: CHO cells
Source text: A standard cell-based assay for c-Met kinase activity can be used to test or screen the compounds of this invention and to identify c-Met antagonists. In this example, ELISA kits (R&D Systems, Inc., Minneapolis, Minn. 55413, USA) were used.
The activity of c-Met in cells depended on its autophosphorylation level by it specific growth factor-Hepatocyte growth factor (HGF). In order to induce the cell to produce c-Met, full length of c-Met sequence was cloned into PC-DNA3.1 vector, the plasmid was then transfected into CHO cells. After 48 hours, the expression of c-Met in transfected CHO cells was confirmed by regular western blotting.
A compound to be tested was first dissolved in DMSO to a concentration of 10 mM and stored at −20° C. One day before the screening, CHO cells transfected with full length c-Met plasmid were grown in DMEM medium without the presence of serum. On the day of screening procedure, the compounds with various concentration in DMSO (from 0.5 nM to 500 nM) were added into DMEM medium, two hours later, Hepatocyte growth factor (HGF) was added into the medium at the concentration of 100 ng/mL to stimulate the production of phosphor-c-Met. Cell lysate from approximately 5×10^5 transfected CHO cells were reacted with anti-phosphor c-Met or anti-total c-Met antibody in 96 well plates, in the presence of detection antibody. The phosphor-c-Met or total c-Met were detected with Streptavidin-HRP (R&D Systems), followed by chemiluminescent detection. The level of c-Met kinase activity was quantified as the ratio between the amount of phosphor- and that of total c-Met proteins.

[3] = target: T2, EphB4 (Homo sapiens, UniProt P54760); assay: EphB4 cell-based assay (quantitative Western blotting, PC-3 cells, Ephrin-B2 stimulated); details: compound at 100 nM; PC-3 human prostate cancer cells; Ephrin-B2 stimulation; read-out: % EphB4 kinase activity remains
T2 construct: EphB4 autophosphorylation in PC-3 human prostate cancer cells; host or cells: PC-3 human prostate cancer cells
T2 sequence (P54760 16-987): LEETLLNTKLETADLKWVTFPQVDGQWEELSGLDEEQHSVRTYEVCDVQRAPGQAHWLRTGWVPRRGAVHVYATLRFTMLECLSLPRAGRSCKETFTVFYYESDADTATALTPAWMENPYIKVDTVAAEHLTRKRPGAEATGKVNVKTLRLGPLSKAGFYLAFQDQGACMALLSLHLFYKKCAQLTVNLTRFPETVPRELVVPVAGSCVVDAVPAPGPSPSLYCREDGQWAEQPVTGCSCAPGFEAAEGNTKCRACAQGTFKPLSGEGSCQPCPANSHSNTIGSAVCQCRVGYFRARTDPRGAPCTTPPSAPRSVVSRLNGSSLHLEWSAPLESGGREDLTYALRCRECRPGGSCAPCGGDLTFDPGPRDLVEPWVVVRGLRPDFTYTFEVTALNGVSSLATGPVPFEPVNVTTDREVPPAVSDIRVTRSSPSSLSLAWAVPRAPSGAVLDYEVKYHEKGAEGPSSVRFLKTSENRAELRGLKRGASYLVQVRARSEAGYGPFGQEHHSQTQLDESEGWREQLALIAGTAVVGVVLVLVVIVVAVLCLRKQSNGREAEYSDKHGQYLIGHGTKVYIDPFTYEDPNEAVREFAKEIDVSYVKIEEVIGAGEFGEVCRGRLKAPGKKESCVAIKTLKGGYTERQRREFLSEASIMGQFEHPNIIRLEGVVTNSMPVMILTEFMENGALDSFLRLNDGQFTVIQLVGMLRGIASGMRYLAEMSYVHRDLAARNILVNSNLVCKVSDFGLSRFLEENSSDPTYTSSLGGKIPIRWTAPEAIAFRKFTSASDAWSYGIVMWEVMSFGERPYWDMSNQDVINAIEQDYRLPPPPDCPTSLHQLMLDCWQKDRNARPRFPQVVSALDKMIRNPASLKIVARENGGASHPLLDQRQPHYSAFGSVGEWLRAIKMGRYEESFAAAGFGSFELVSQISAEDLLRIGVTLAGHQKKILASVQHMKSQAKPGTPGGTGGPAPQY
Source text: A standard image-based quantitative Western blotting assay for EphB4 kinase activity can be used to test or screen the compounds of this invention and to identify EphB4 antagonists.
The kinase activity of EphB4 in cells depends on its autophosphorylation level stimulated by the binding to its ligand Ephrin-B2. High level of EphB4 autophosphorylation in PC-3 human prostate cancer cells (ATCC, USA) induced by the application of Ephrin-B2 to the cell culture can be observed by regular Western blotting assay.
A compound to be tested was first dissolved in DMSO to a concentration of 10 mM and stored at −20° C. On the day of screening procedure, the compound in DMSO was added into DMEM medium to a final concentration of 100 nM. Two hours later, Ephrin-B2 ([…]) was added into DMEM medium to stimulate the production of phosphor-EphB4. The phosphor-EphB4 was detected based on its molecular weight and with anti-phosphor protein antibody PY-20 in cell lysate from approximately 5×10^5 PC-3 cells by Western blotting followed by imaging quantification. The relative level of EphB4 kinase activity was quantified as the ratio between the amount of phosphor-EphB4 and that of total Actin proteins.

T1 sequence (P08581 25-1390): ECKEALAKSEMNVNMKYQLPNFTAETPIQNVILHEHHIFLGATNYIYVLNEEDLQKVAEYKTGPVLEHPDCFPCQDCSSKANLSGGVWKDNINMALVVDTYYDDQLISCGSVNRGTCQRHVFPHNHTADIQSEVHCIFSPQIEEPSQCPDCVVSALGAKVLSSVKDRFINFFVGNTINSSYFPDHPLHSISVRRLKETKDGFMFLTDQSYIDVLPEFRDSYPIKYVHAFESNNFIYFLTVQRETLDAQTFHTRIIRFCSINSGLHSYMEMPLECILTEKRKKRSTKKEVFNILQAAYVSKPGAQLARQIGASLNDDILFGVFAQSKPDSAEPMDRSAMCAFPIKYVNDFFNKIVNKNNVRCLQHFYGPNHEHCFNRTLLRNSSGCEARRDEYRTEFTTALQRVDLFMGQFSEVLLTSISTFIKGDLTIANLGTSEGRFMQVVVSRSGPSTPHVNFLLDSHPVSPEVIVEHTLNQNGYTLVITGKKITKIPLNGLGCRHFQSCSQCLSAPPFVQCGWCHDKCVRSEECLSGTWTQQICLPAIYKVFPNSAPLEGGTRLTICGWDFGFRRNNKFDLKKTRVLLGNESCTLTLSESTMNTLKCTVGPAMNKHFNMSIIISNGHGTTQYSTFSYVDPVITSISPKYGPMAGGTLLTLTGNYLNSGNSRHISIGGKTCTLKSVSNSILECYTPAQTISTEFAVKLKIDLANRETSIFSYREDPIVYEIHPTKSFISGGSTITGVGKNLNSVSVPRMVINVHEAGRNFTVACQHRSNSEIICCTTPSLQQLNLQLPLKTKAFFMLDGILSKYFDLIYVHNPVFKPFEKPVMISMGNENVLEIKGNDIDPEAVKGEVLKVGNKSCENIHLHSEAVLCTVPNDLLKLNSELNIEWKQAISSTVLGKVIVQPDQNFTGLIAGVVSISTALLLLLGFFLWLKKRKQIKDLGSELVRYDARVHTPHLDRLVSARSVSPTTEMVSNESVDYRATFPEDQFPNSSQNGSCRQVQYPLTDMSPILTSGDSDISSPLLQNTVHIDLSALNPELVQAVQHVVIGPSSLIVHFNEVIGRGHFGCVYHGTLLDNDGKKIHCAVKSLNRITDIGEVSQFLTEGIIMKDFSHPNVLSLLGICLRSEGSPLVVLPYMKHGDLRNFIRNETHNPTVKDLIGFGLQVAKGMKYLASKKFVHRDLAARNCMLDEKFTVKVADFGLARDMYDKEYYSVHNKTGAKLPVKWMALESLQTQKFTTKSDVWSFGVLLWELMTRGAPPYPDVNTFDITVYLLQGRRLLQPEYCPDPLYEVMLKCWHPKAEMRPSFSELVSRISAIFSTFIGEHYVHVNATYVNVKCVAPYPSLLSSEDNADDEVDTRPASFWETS

Row | SMILES | % of compound remained at the 30th minutes, Mouse liver microsome [1] | % C-Met kinase activity remains [2] | remaining activity at 0.1 µM [3]
1 | [2H]C(c1c[nH]c2ncccc12)n1ccc2c(NC(=O)Nc3cc(Cl)ccc3OC([2H])([2H])[2H])cccc21 (stereo not drawn) [Example 16, 1-[5-chloro-2-(trideuteriomethoxy)phenyl]-3-[1-[deuterio(1H-pyrrolo[2,3-b]pyridin-3-yl)methyl]indol-4-yl]urea] | A | A (the percentage of kinase activity remains is below 70%) | ≥ 70%
2 | [2H]C([2H])(c1ccnc2[nH]ccc12)n1ccc2c(NC(=O)Nc3cc(Cl)ccc3F)cccc21 [Example 12, 1-(5-chloro-2-fluorophenyl)-3-[1-[dideuterio(1H-pyrrolo[2,3-b]pyridin-4-yl)methyl]indol-4-yl]urea hydrochloride] | B | A (the percentage of kinase activity remains is below 70%) | < 70%
3 | [2H]C(c1c[nH]c2ncccc12)n1ccc2c(NC(=O)Nc3cccc(C)c3)cccc21 (stereo not drawn) [Example 22, 1-[1-[deuterio(1H-pyrrolo[2,3-b]pyridin-3-yl)methyl]indol-4-yl]-3-(m-tolyl)urea] | A | A (the percentage of kinase activity remains is below 70%) | ≥ 70%
4 | [2H]C([2H])(c1ccnc2[nH]ccc12)n1ccc2c(NC(=O)Nc3cccc(C)c3)cccc21 [Example 14, 1-[1-[dideuterio(1H-pyrrolo[2,3-b]pyridin-4-yl)methyl]indol-4-yl]-3-(m-tolyl)urea hydrochloride] | A | A (the percentage of kinase activity remains is below 70%) | < 70%
5 | [2H]C([2H])(c1ccnc2[nH]ccc12)N1CCc2c(NC(=O)Nc3cccc(C)c3)cccc21 [Example 13, 1-[1-[Dideuterio(1H-pyrrolo[2,3-b]pyridin-4-yl)methyl]indolin-4-yl]-3-(m-tolyl)urea hydrochloride] | A | A (the percentage of kinase activity remains is below 70%) | ≥ 70%
6 | [2H]C([2H])(c1ccnc(N)c1)N1CCc2c(NC(=O)Nc3cc(Cl)ccc3OC)cccc21 [Example 1, 1-[1-[(2-Amino-4-pyridyl)-dideuteriomethyl]indolin-4-yl]-3-(5-chloro-2-methoxyphenyl)urea] | A | B (the percentage is greater or equal to 70%) | < 70%
7 | Cl.[2H]C([2H])([2H])Oc1ccc(Cl)cc1NC(=O)Nc1cccc2c1ccn2C([2H])([2H])c1ccnc2[nH]ccc12 [Example 8, 1-[5-chloro-2-(trideuteriomethoxy)phenyl]-3-[1-[dideuterio(1H-pyrrolo[2,3-b]pyridin-4-yl)methyl]indol-4-yl]urea hydrochloride] | A | A (the percentage of kinase activity remains is below 70%) | ≥ 70%
8 | [2H]C(c1c[nH]c2ncccc12)N1CCc2c(NC(=O)Nc3cccc(C)c3)cccc21 (stereo not drawn) [Example 21, 1-[1-[Deuterio(1H-pyrrolo[2,3-b]pyridin-3-yl)methyl]indolin-4-yl]-3-(m-tolyl)urea] | A | B (the percentage is greater or equal to 70%) | ≥ 70%
9 | [2H]C([2H])([2H])Oc1ccc(Cl)cc1NC(=O)Nc1cccc2c1ccn2C([2H])([2H])c1ccnc(N)c1 [Example 4, 1-[1-[(2-amino-4-pyridyl)-dideuteriomethyl]indol-4-yl]-3-[5-chloro-2-(trideuteriomethoxy)phenyl]urea] | B | A (the percentage of kinase activity remains is below 70%) | < 70%
10 | [2H]C(c1c[nH]c2ncccc12)N1CCc2c(NC(=O)Nc3cc(Cl)ccc3F)cccc21 (stereo not drawn) [Example 19, 1-(5-Chloro-2-fluorophenyl)-3-[1-[deuterio(1H-pyrrolo[2,3-b]pyridin-3-yl)methyl]indolin-4-yl]urea] | B | B (the percentage is greater or equal to 70%) | ≥ 70%
11 | [2H]C(c1c[nH]c2ncccc12)N1CCc2c(NC(=O)Nc3cc(Cl)ccc3OC([2H])([2H])[2H])cccc21 (stereo not drawn) [Example 15, 1-[5-Chloro-2-(trideuteriomethoxy)phenyl]-3-[1-[deuterio(1H-pyrrolo[2,3-b]pyridin-3-yl)methyl]indolin-4-yl]urea] | B | A (the percentage of kinase activity remains is below 70%) | ≥ 70%
